The text below walks through data of ChEMBL document CHEMBL5137119, “Total Syntheses and Antibacterial Evaluations of Neocyclomorusin and Related Flavones” (2022).

In general, MIC refers to the least concentration at which growth counts as inhibited.

Common to all, as to assay type: functional
Assay [1] concerns Staphylococcus epidermidis. Kind of assay: Antibacterial activity against Staphylococcus epidermidis ATCC 51625 assessed as inhibition of bacterial growth incubated for 24 hrs by optical density based analysis.
Assay [2] deals with Escherichia coli. Kind of assay: Antibacterial activity against Escherichia coli ATCC 25922 assessed as inhibition of bacterial growth incubated for 24 hrs by optical density based analysis.
Assay [3] has as its system Staphylococcus aureus. Kind of assay: Antibacterial activity against Staphylococcus aureus assessed as inhibition of bacterial growth.
The subject of assay [4] is Staphylococcus aureus. The assay is described as follows: Antibacterial activity against Staphylococcus aureus ATCC 25923 assessed as inhibition of bacterial growth incubated for 24 hrs by optical density based analysis.
For a further assay, the system named is Bacillus subtilis. Kind of assay: Antibacterial activity against Bacillus subtilis ATCC 11774 assessed as inhibition of bacterial growth incubated for 24 hrs by optical density based analysis.
Another assay relates to Klebsiella pneumoniae. The assay is described as follows: Antibacterial activity against Klebsiella pneumoniae assessed as inhibition of bacterial growth incubated for 18 hrs by p-iodonitrotetrazolium chloride dye based colorimetric assay.
The subject of assay [5] is Escherichia coli. Kind of assay: Antibacterial activity against Escherichia coli assessed as inhibition of bacterial growth incubated for 18 hrs by p-iodonitrotetrazolium chloride dye based colorimetric assay.
The test system of the next assay is Klebsiella aerogenes. The assay is described as follows: Antibacterial activity against Enterobacter aerogenes assessed as inhibition of bacterial growth incubated for 18 hrs by p-iodonitrotetrazolium chloride dye based colorimetric assay.
A further assay has as its system Providencia stuartii. The assay is described as follows: Antibacterial activity against Providencia stuartii assessed as inhibition of bacterial growth incubated for 18 hrs by p-iodonitrotetrazolium chloride dye based colorimetric assay.
The test system of the next assay is Enterobacter cloacae. The assay is described as follows: Antibacterial activity against Enterobacter cloacae assessed as inhibition of bacterial growth incubated for 18 hrs by p-iodonitrotetrazolium chloride dye based colorimetric assay.
A further assay deals with Pseudomonas aeruginosa. Kind of assay: Antibacterial activity against Pseudomonas aeruginosa assessed as inhibition of bacterial growth incubated for 18 hrs by p-iodonitrotetrazolium chloride dye based colorimetric assay.

Converted amounts (≈) assume the structure as drawn.

As to `COc1cc(O)c2c(=O)c3c(oc2c1)-c1ccc(O)cc1OC(C(C)(C)O)C3` (stereo unspecified), the MIC in [1] is more than 128 µg/mL; in the assay on Escherichia coli [2], more than 128 µg/mL; in the assay with Staphylococcus aureus [3], 128 µg/mL (≈ 333 µM); with Staphylococcus aureus [4] it was 128 µg/mL (≈ 333 µM); in the assay on Bacillus subtilis, more than 128 µg/mL.
As to `CC1(C)S[C@@H]2[C@H](NC(=O)[C@H](N)c3ccccc3)C(=O)N2[C@H]1C(=O)O` [AMPICILLIN], the MIC in assay [1] was 128 µg/mL (≈ 366 µM); in the assay on Escherichia coli [2], 64 µg/mL (≈ 183 µM); in the assay with Staphylococcus aureus [4], 4 µg/mL (≈ 11.4 µM); in the assay with Bacillus subtilis, more than 128 µg/mL.
As to `CC(C)=CCc1c(-c2ccc(O)cc2O)oc2cc3c(c(O)c2c1=O)C=CC(C)(C)O3` [CUDRAFLAVONE B], the MIC in assay [1] is 16 µg/mL (≈ 38.1 µM); in the assay with Escherichia coli [2] it was more than 128 µg/mL; in the assay on Staphylococcus aureus [4] it was 4 µg/mL (≈ 9.51 µM); in the assay on Bacillus subtilis, 16 µg/mL (≈ 38.1 µM).
For `NC[C@H]1O[C@H](O[C@H]2[C@H](O)[C@@H](O[C@H]3O[C@H](CO)[C@@H](O)[C@H](N)[C@H]3O)[C@H](N)C[C@@H]2N)[C@H](O)[C@@H](O)[C@@H]1O` [KANAMYCIN], the MIC turned out to be 1 µg/mL (≈ 2.06 µM) in assay [1], 16 µg/mL (≈ 33 µM) in the assay on Escherichia coli [2], 4 µg/mL (≈ 8.26 µM) with Staphylococcus aureus [4] and 2 µg/mL (≈ 4.13 µM) in the assay on Bacillus subtilis.
In the case of `CC(C)=CCc1c(-c2ccc(O)cc2O)oc2c3c(cc(O)c2c1=O)OC(C)(C)C=C3` [MORUSIN], the MIC in [1] was 8 µg/mL (≈ 19 µM); in the assay with Escherichia coli [2], more than 128 µg/mL; in the assay on Staphylococcus aureus [4], 8 µg/mL (≈ 19 µM); with Bacillus subtilis, 16 µg/mL (≈ 38.1 µM).
For `CC1(C)C=Cc2c(cc(O)c3c(=O)c4c(oc23)-c2ccc(O)cc2OC(C(C)(C)O)C4)O1` (stereo unspecified) [NEOCYCLOMORUSIN], the minimal inhibitory concentration (MIC) was 4 µg/mL (≈ 9.16 µM) with Klebsiella pneumoniae; 4 µg/mL (≈ 9.16 µM) in the assay on Escherichia coli [5]; 4 µg/mL (≈ 9.16 µM) in the assay on Klebsiella aerogenes; more than 128 µg/mL in assay [1]; 4 µg/mL (≈ 9.16 µM) in the assay with Providencia stuartii; more than 128 µg/mL in the assay with Escherichia coli [2]. Also, the MIC came to 4 µg/mL (≈ 9.16 µM) with Enterobacter cloacae, 64 µg/mL (≈ 147 µM) in the assay on Staphylococcus aureus [4], 64 µg/mL (≈ 147 µM) in the assay on Bacillus subtilis and 4 µg/mL (≈ 9.16 µM) in the assay with Pseudomonas aeruginosa.
